# How the values were obtained:
# Experiment in all cases: selective drug sensitivity score (sDSS, relative to normal bone marrow) (sDSS (score)); higher = more potent and effective on the cell line relative to normal bone marrow cells
# Conditions in all cases: 72 h
# [1] = system: COG-LL-317
# [2] = system: TANOUE
# [3] = system: KASUMI-2
# [4] = system: 380
# [5] = system: COG-LL-332h
# [6] = system: SUP-B15
# [7] = system: ALL-PO
# [8] = system: KASUMI-10
# [9] = system: MOLT-4
# [10] = system: MOLT-14
# [11] = system: 697
# [12] = system: P30-OHKUBO
# [13] = system: MN-60
# [14] = system: MHH-CALL-4
# [15] = system: NALM-6
# [16] = system: HAL-01
# [17] = system: HPB-ALL
# [18] = system: JURKAT
# [19] = system: DND-41
# [20] = system: MHH-CALL-3
# 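Further: ALL cell lines in 384-well plates, five doses spanning 10,000-fold, each plate scaled between vehicle and 100 µmol/L benzalkonium chloride controls, sDSS an adapted area-under-curve metric.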
Compound,selective drug sensitivity score [1],selective drug sensitivity score [2],selective drug sensitivity score [3],selective drug sensitivity score [4],selective drug sensitivity score [5],selective drug sensitivity score [6],selective drug sensitivity score [7],selective drug sensitivity score [8],selective drug sensitivity score [9],selective drug sensitivity score [10],selective drug sensitivity score [11],selective drug sensitivity score [12],selective drug sensitivity score [13],selective drug sensitivity score [14],selective drug sensitivity score [15],selective drug sensitivity score [16],selective drug sensitivity score [17],selective drug sensitivity score [18],selective drug sensitivity score [19],selective drug sensitivity score [20]
C[C@H]1C[C@@H]2[C@H]([C@@H](O)C[C@@]3(C)[C@H]2CC[C@]3(O)C(=O)CO)[C@@]2(C)C=CC(=O)C=C12 [Methylprednisolone] (top concentration 10000 nM),5.4,-2.3,11.6,27.2,-0.7,32.9,34.1,-2.3,-2.3,-2.3,22.3,18.6,-1.5,31.6,22.4,1.5,5,-2,31.6,33.2
CN(C)C(=N)NC(=N)N [Metformin] (top concentration 100000 nM),-0.02,-0.02,-0.02,-0.02,-0.02,-0.02,-0.02,-0.02,-0.02,-0.02,-0.02,-0.02,-0.02,-0.02,-0.02,-0.02,-0.02,-0.02,0.08,-0.02
Clc1ccc(Nc2nnc(Cc3ccncc3)c3ccccc23)cc1 [Vatalanib] (top concentration 10000 nM),0.5,0,0,0,0.7,0,0,0,0,0,0,0,0.1,0.1,0,0,0,0,0,0
CN(C)C(=O)c1cc2cnc(Nc3ccc(N4CCNCC4)cn3)nc2n1C1CCCC1 [Ribociclib] (top concentration 10000 nM),0.38,-2.02,-0.92,-2.02,1.58,1.58,0.98,0.08,-1.02,1.18,8.18,6.58,-1.62,-1.42,1.18,0.38,2.78,0.48,1.68,3.18
Cn1cc(-c2cnn3c(N)c(Br)c([C@@H]4CCCNC4)nc23)cn1 [MK-8776] (top concentration 2500 nM),6.14,-1.46,-1.46,3.64,0.34,-0.06,4.44,2.24,-1.46,-1.26,1.54,-1.16,-1.46,-0.46,-1.36,-0.46,-1.46,-1.46,3.84,0.04
CCCc1cc(C)[nH]c(=O)c1CNC(=O)c1cc(-c2ccnc(N3CCN(C)CC3)c2)cc2c1cnn2C(C)C [GSK343] (top concentration 1000 nM),0,0,0,0,0,0,0.1,0,0,2,0,0,0,0,0,0,0,0,0,0
COCC1(CO)C(=O)C2CCN1CC2 (stereo not given) [APR-246] (top concentration 10000 nM),-1.16,4.54,-1.16,4.54,-0.56,0.44,-1.16,-1.16,-1.16,-1.16,0.24,-0.76,-1.16,0.64,1.14,-0.36,2.14,-1.16,-1.16,0.14
N#Cc1ccc(C(c2ccc(C#N)cc2)n2cncn2)cc1 [Letrozole] (top concentration 10000 nM),-0.04,1.16,0.76,-0.04,-0.04,0.36,-0.04,-0.04,-0.04,-0.04,-0.04,-0.04,-0.04,-0.04,-0.04,-0.04,-0.04,-0.04,1.06,-0.04
CNc1nc(Nc2cn(C(C)(C)C#N)nc2C)ncc1C(F)(F)F [GNE-0877] (top concentration 1000 nM),0,0,1,0,0,0,0,0,0,0,0,0,0,0,0,0,0,0,0,0
NS(=O)(=O)NCCNc1nonc1/C(=N/O)Nc1ccc(F)c(Br)c1 [Epacadostat] (top concentration 10000 nM),1.14,-0.26,-0.26,-0.26,-0.26,-0.26,-0.26,-0.06,-0.16,-0.26,-0.26,-0.06,1.44,4.24,-0.26,0.84,-0.16,-0.16,-0.26,-0.26
CNC(=O)c1cc(COc2nnc(Nc3ccc(Cl)cc3)c3ccoc23)ccn1 [Telatinib] (top concentration 10000 nM),0,0,0,0,0,0,0,0,0,0,1.6,2.9,0,0,0,1.8,0.9,0,0,0
O=C(CCNC(=O)c1ccc(OC(F)(F)F)cc1)N[C@@H]1CCCc2ccccc21 [ML390] (top concentration 50000 nM),16.8,3.5,2.9,12.4,16.1,19.1,5.3,4.1,15.2,16.6,16.4,13.6,16.8,1.8,10.8,4.9,6.5,14.8,5.4,-1.2
FC(F)(F)c1ccc(/C=C/c2nc(COc3ccc(CCCCn4ccnn4)cc3)co2)cc1 [Mubritinib] (top concentration 1000 nM),2.26,18.7,11.6,0.66,8.06,10.6,6.16,-2.24,19.6,4.46,15.5,7.06,17.6,3.46,12.1,3.06,8.86,24,5.46,3.06
CCOc1ccccc1-n1c(C(C)N2CCN(C(=O)COc3ccc(Cl)cc3)CC2)nc2ccccc2c1=O (stereo not given) [Erastin] (top concentration 10000 nM),11.2,-9.96,19.4,24.8,12.7,14,4.54,-4.36,-2.26,8.54,20.1,9.54,-6.86,6.44,7.44,18.5,6.54,-0.16,7.14,24.4
CCN(CC)CCOc1ccc(/C(=C(/Cl)c2ccccc2)c2ccccc2)cc1 [Clomifene] (top concentration 10000 nM),0.22,-2.98,0.82,1.42,0.42,0.12,0.62,-1.78,-1.08,-0.28,0.92,3.22,-0.18,2.72,-0.28,4.32,-0.78,-1.28,1.62,6.52
CCOc1cc2ncc(C#N)c(Nc3ccc(OCc4ccccn4)c(Cl)c3)c2cc1NC(=O)/C=C/CN(C)C [Neratinib] (top concentration 1000 nM),1.18,-0.72,-0.72,4.98,1.88,1.48,5.28,3.68,1.38,4.28,6.28,2.78,0.38,-0.22,0.48,-0.42,2.38,1.48,-0.62,4.98
O=C(NC[C@H](O)CN1CCc2ccccc2C1)c1cc(NC2COC2)ncn1 (top concentration 10000 nM),10.6,-0.06,-0.06,-0.06,1.54,1.54,-0.06,-0.06,2.74,-0.06,0.84,0.84,-0.06,-0.06,-0.06,-0.06,3.44,-0.06,-0.06,-0.06
COc1cc2c(NC3CCN(C(C)C)CC3)nc(N3CCC(F)(F)CC3)nc2cc1OCCCN1CCCC1 [UNC0642] (top concentration 10000 nM),1.66,-3.74,-0.84,0.86,1.46,3.36,2.96,-1.64,-3.44,-1.24,0.76,2.06,-3.74,1.46,-2.24,-3.54,-2.84,-3.64,5.56,-1.64
O=C(c1ccc(C(=O)N2CCC(N3CCCC3)CC2)c(Nc2ccccc2)c1)N1CCC(N2CCCC2)CC1 [UNC1215] (top concentration 10000 nM),0,0,0,0,0,0,0,0,0,0,0,0,0,0,0,0,0,0,0,0
